Reference: US12178842B2, “PCSK9 antagonist compounds” (MERCK SHARP & DOHME LLC, priority 2019, dated 2024)

Assays:
Type in all cases: binding
PCSK9 [1] = target: T1, PCSK9 (Homo sapiens, UniProt Q8NBP7); experiment: PCSK9 Alexa FRET Standard TR-FRET assay; conditions: Ki calculated from IC50 and KD of AF cyclic peptide Reagent A; 0.5 nM PCSK9, 20 nM AF cyclic peptide; read-out: Alexa FRET Stdt TR-FRET
T1 construct: biotin (biotinylated); purchased
Method in brief: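 Ki (nM) calculated from sigmoidal-fit IC50 and the KD of an AlexaFluor-labelled cyclic peptide (20 nM final) competing with compound for biotinylated PCSK9 (0.5 nM) bound to Eu-streptavidin (1.25 nM). Incubation at least 2 h, room temperature, HEPES pH 7.4 buffer with CaCl2; falling europium counts flag false positives.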

PCSK9 [2] = target: T1, PCSK9; experiment: PCSK9 Alexa FRET Plus TR-FRET assay
Method in brief: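 Compounds displace an AlexaFluor-labeled cyclic peptide (1920 nM solution, not final) from europium-tagged PCSK9; time-resolved FRET read after ≥2 h at room temperature. Ki derived from fitted IC50 and peptide KD, europium donor counts monitored to detect compound interference, results given in nanomolar.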

PCSK9 [3] = target: T1, PCSK9; experiment: PCSK9 Alexa FRET Ultra TR-FRET assay
Method in brief: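 TR-FRET read after ≥2 h at room temperature between europium-PCSK9 and an AlexaFluor cyclic peptide, stated as a 1920 nM solution. Sigmoidal nonlinear regression gives IC50, and Ki in nM follows from the peptide KD; europium counts are monitored for compound interference.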

[4] = Ki calculated from IC50 and KD of AF cyclic peptide Reagent B, 0.5 nM PCSK9, 960 nM AF cyclic peptide, read-out: Alexa FRET Plus TR-FRET
[5] = Ki Ultra, calculated from IC50 and KD of AF cyclic peptide, 0.5 nM PCSK9, 960 nM AF cyclic peptide, read-out: Alexa FRET Ultra TR-FRET

T1 sequence (Q8NBP7 153-692): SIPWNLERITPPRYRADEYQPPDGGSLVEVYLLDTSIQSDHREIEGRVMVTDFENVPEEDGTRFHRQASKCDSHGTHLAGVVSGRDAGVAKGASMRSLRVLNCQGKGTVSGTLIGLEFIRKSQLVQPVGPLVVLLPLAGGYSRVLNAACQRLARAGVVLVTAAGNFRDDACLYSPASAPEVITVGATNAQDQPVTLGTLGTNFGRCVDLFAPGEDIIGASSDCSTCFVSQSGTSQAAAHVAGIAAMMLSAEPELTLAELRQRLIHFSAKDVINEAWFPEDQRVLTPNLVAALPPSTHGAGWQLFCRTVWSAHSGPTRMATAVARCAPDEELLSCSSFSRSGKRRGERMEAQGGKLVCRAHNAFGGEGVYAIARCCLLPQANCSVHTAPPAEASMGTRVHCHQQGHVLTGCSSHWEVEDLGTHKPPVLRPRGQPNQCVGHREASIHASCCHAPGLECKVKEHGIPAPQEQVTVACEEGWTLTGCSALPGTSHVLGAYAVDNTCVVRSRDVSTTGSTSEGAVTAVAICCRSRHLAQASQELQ

| SMILES | Ki (PCSK9 [1]) | Ki (PCSK9 [2]; [4]) | Ki (PCSK9 [3]; [5]) | Ki (PCSK9 [2]) | Ki (PCSK9 [3]) |
| --- | --- | --- | --- | --- | --- |
| COc1ccc(C[C@@H]2NC(=O)[C@H]([C@@H](C)O)NC(=O)[C@@H]3[C@@H]4CCN3C(=O)[C@@H]3Cc5cn(c6ccc(F)cc56)CCCCCCN(Cc5ccc(cc5)CCNC(=O)[C@]5(C)CCCN5C2=O)C(=O)CCC(=O)N[C@@H](CNC(=O)COCCOCCNC(=O)CC[C@H](NC(=O)CCOCCOCC[N+](C)(C)CCNC(=O)COCCOCCNC(=O)COCCOCCNC(=O)CC[C@H](NC(=O)CCCCCCCCCCCCCCCCC(=O)O)C(=O)O)C(=O)O)C(=O)N[C@H](C)C(=O)N[C@@H](Cc2cccc(c2)CNC(=O)CO4)C(=O)N3)cc1 [Ex-61] | < 1.26 nM | 0.049 nM | 0.131 nM |  |  |
| COc1ccc(C[C@@H]2NC(=O)[C@H]([C@@H](C)O)NC(=O)[C@@H]3[C@@H]4CCN3C(=O)[C@@H]3Cc5cn(c6ccc(F)cc56)CCCCCCN(Cc5ccc(cc5)CCNC(=O)[C@]5(C)CCCN5C2=O)C(=O)CCC(=O)N[C@@H](CNC(=O)COCCOCC[N+](C)(C)CCNC(=O)COCCOCCNC(=O)COCCOCCNC(=O)CC[C@H](NC(=O)CCCCCCCCOCCCCCCCCC(=O)O)C(=O)O)C(=O)N[C@H](C)C(=O)N[C@@H](Cc2cccc(c2)CNC(=O)CO4)C(=O)N3)cc1 [Ex-62] | < 1.26 nM |  |  | < 0.006 nM | 0.038 nM |
| COc1ccc(C[C@@H]2NC(=O)[C@H]([C@@H](C)O)NC(=O)[C@@H]3[C@@H]4CCN3C(=O)[C@@H]3Cc5cn(c6ccc(F)cc56)CCCCCCN(Cc5ccc(cc5)CCNC(=O)[C@]5(C)CCCN5C2=O)C(=O)CCC(=O)N[C@@H](CNC(=O)COCCOCCNC(=O)COCCOCCNC(=O)CC[C@H](NC(=O)CCCCCCCCCCCCCCCCC(=O)O)C(=O)O)C(=O)N[C@H](CNC(=O)CCOCCOCC[N+](C)(C)C)C(=O)N[C@@H](Cc2cccc(c2)CNC(=O)CO4)C(=O)N3)cc1 [Ex-63] | < 1.26 nM | < 0.006 nM | 0.045 nM |  |  |
| COc1ccc(C[C@@H]2NC(=O)[C@H]([C@@H](C)O)NC(=O)[C@@H]3[C@@H]4CCN3C(=O)[C@@H]3Cc5cn(c6ccc(F)cc56)CCCCCCN(Cc5ccc(cc5)CCNC(=O)[C@]5(C)CCCN5C2=O)C(=O)CCC(=O)N[C@@H](CNC(=O)CCOCCOCC[N+](C)(C)CCNC(=O)COCCOCCNC(=O)COCCOCCNC(=O)CC[C@H](NC(=O)CCCCCCCCCCCCCCC(=O)O)C(=O)O)C(=O)N[C@H](CNC(=O)CCOCCOCC[N+](C)(C)C)C(=O)N[C@@H](Cc2cccc(c2)CNC(=O)CO4)C(=O)N3)cc1 [Ex-64] | < 1.26 nM | 0.012 nM | 0.028 nM |  |  |
| COc1ccc(C[C@@H]2NC(=O)[C@H]([C@@H](C)O)NC(=O)[C@@H]3[C@@H]4CCN3C(=O)[C@@H]3Cc5cn(c6ccc(F)cc56)CCCCCCN(Cc5ccc(cc5)CCNC(=O)[C@]5(C)CCCN5C2=O)C(=O)CCC(=O)N[C@@H](CNC(=O)COCCOCC[N+](C)(C)CCNC(=O)COCCOCCNC(=O)COCCOCCNC(=O)CC[C@H](NC(=O)CCCCCCCCCCCCCCCCC(=O)O)C(=O)O)C(=O)N[C@H](CNC(=O)CCOCCOCC[N+](C)(C)C)C(=O)N[C@@H](Cc2cccc(c2)CNC(=O)CO4)C(=O)N3)cc1 [Ex-65] | < 1.26 nM | < 0.006 nM | 0.024 nM |  |  |
| COc1ccc(C[C@@H]2NC(=O)[C@H]([C@@H](C)O)NC(=O)[C@@H]3[C@@H]4CCN3C(=O)[C@@H]3Cc5cn(c6ccc(F)cc56)CCCCCCN(Cc5ccc(cc5)CCNC(=O)[C@]5(C)CCCN5C2=O)C(=O)CCC(=O)N[C@@H](CNC(=O)COCCOCC[N+](C)(C)CCOCCNC(=O)COCCOCCNC(=O)COCCOCCNC(=O)CC[C@H](NC(=O)CC[C@H](NC(=O)CCCCCCCCCCCCCCC(=O)O)C(=O)O)C(=O)O)C(=O)N[C@H](CNC(=O)CCOCCOCC[N+](C)(C)C)C(=O)N[C@@H](Cc2cccc(c2)CNC(=O)CO4)C(=O)N3)cc1 [Ex-66] | < 1.26 nM | 0.007 nM | 0.027 nM |  |  |
| COc1ccc(C[C@@H]2NC(=O)[C@H]([C@@H](C)O)NC(=O)[C@@H]3[C@@H]4CCN3C(=O)[C@@H]3Cc5cn(c6ccc(F)cc56)CCCCCCN(Cc5ccc(cc5)CCNC(=O)[C@]5(C)CCCN5C2=O)C(=O)CCC(=O)N[C@@H](C)C(=O)N[C@H](CNC(=O)CCOCCOCC[N+](C)(C)CCNC(=O)COCCOCCNC(=O)COCCOCCNC(=O)CCC(CS(=O)(=O)O)NC(=O)CCCCCCCCCCCCCCCCC(=O)O)C(=O)N[C@@H](Cc2cccc(c2)CNC(=O)CO4)C(=O)N3)cc1 (stereo partly drawn) [Ex-67] | < 1.26 nM | < 0.006 nM | 0.005 nM |  |  |
| COc1ccc(C[C@@H]2NC(=O)[C@H]([C@@H](C)O)NC(=O)[C@@H]3[C@@H]4CCN3C(=O)[C@@H]3Cc5cn(c6ccc(F)cc56)CCCCCCN(Cc5ccc(cc5)CCNC(=O)[C@]5(C)CCCN5C2=O)C(=O)CCC(=O)N[C@@H](C)C(=O)N[C@H](CNC(=O)CCOCCOCC[N+](C)(C)CCNS(=O)(=O)CCCNS(=O)(=O)CCCNC(=O)CC[C@H](NC(=O)CCCCCCCCCCCCCCCCC(=O)O)C(=O)O)C(=O)N[C@@H](Cc2cccc(c2)CNC(=O)CO4)C(=O)N3)cc1 [Ex-68] | < 1.26 nM | < 0.006 nM | 0.005 nM |  |  |

Further lines, with some results ahead:

| Ki (PCSK9 [1]) | Ki (PCSK9 [2]; [4]) | Ki (PCSK9 [3]; [5]) | SMILES | Ki (PCSK9 [2]) | Ki (PCSK9 [3]) |
| --- | --- | --- | --- | --- | --- |
| < 1.26 nM | 0.021 nM | 0.014 nM | COc1ccc(C[C@@H]2NC(=O)[C@H]([C@@H](C)O)NC(=O)[C@@H]3[C@@H]4CCN3C(=O)[C@@H]3Cc5cn(c6ccc(F)cc56)CCCCCCN(Cc5ccc(cc5)CCNC(=O)[C@]5(C)CCCN5C2=O)C(=O)CCC(=O)N[C@@H](C)C(=O)N[C@H](CNC(=O)CCOCCOCC[N+](C)(C)CCNC(=O)CC[C@H](NC(=O)COCCOCCNC(=O)CC[C@H](NC(=O)CCCCCCCCCCCCCCCCC(=O)O)C(=O)O)C(=O)O)C(=O)N[C@@H](Cc2cccc(c2)CNC(=O)CO4)C(=O)N3)cc1 [Ex-54] |  |  |
| < 1.26 nM | 0.012 nM | 0.01 nM | COc1ccc(C[C@@H]2NC(=O)[C@H]([C@@H](C)O)NC(=O)[C@@H]3[C@@H]4CCN3C(=O)[C@@H]3Cc5cn(c6ccc(F)cc56)CCCCCCN(Cc5ccc(cc5)CCNC(=O)[C@]5(C)CCCN5C2=O)C(=O)CCC(=O)N[C@@H](C)C(=O)N[C@H](CNC(=O)[C@@H](CCCC[N+](C)(C)C)NC(=O)COCCOCCNC(=O)COCCOCCNC(=O)CC[C@H](NC(=O)CC[C@H](NC(=O)CCCCCCCCCCCCCCCCC(=O)O)C(=O)O)C(=O)O)C(=O)N[C@@H](Cc2cccc(c2)CNC(=O)CO4)C(=O)N3)cc1 [Ex-55] |  |  |
| < 1.26 nM | < 0.006 nM | 0.004 nM | COc1ccc(C[C@@H]2NC(=O)[C@H]([C@@H](C)O)NC(=O)[C@@H]3[C@@H]4CCN3C(=O)[C@@H]3Cc5cn(c6ccc(F)cc56)CCCCCCN(Cc5ccc(cc5)CCNC(=O)[C@]5(C)CCCN5C2=O)C(=O)CCC(=O)N[C@@H](C)C(=O)N[C@H](CNC(=O)CCOCCOCC[N+](C)(C)CCNC(=O)COCCOCCNC(=O)COCCOCCNC(=O)CC[C@H](NC(=O)CCCCCCCCCCCCCCC(=O)N[C@@H](CC(=O)O)C(=O)O)C(=O)O)C(=O)N[C@@H](Cc2cccc(c2)CNC(=O)CO4)C(=O)N3)cc1 [Ex-56] |  |  |
| < 1.26 nM | 0.009 nM | 0.034 nM | COc1ccc(C[C@@H]2NC(=O)[C@H]([C@@H](C)O)NC(=O)[C@@H]3[C@@H]4CCN3C(=O)[C@@H]3Cc5cn(c6ccc(F)cc56)CCCCCCN(Cc5ccc(cc5)CCNC(=O)[C@]5(C)CCCN5C2=O)C(=O)CCC(=O)N[C@@H](CNC(=O)CCOCCOCC[N+](C)(C)CCNC(=O)COCCOCCNC(=O)COCCOCCNC(=O)CC[C@H](NC(=O)CCCCCCCCCCCCCCC(=O)O)C(=O)O)C(=O)N[C@H](C)C(=O)N[C@@H](Cc2cccc(c2)CNC(=O)CO4)C(=O)N3)cc1 [Ex-57] |  |  |
| < 1.26 nM | 0.018 nM | 0.079 nM | COc1ccc(C[C@@H]2NC(=O)[C@H]([C@@H](C)O)NC(=O)[C@@H]3[C@@H]4CCN3C(=O)[C@@H]3Cc5cn(c6ccc(F)cc56)CCCCCCN(Cc5ccc(cc5)CCNC(=O)[C@]5(C)CCCN5C2=O)C(=O)CCC(=O)N[C@@H](CNC(=O)CCOCCOCC[N+](C)(C)CCNC(=O)COCCOCCNC(=O)COCCOCCNC(=O)CC[C@H](NC(=O)CC[C@H](NC(=O)CCCCCCCCCCCCCCCCC(=O)O)C(=O)O)C(=O)O)C(=O)N[C@H](C)C(=O)N[C@@H](Cc2cccc(c2)CNC(=O)CO4)C(=O)N3)cc1 [Ex-58] |  |  |
| < 1.26 nM | 0.02 nM | 0.101 nM | COc1ccc(C[C@@H]2NC(=O)[C@H]([C@@H](C)O)NC(=O)[C@@H]3[C@@H]4CCN3C(=O)[C@@H]3Cc5cn(c6ccc(F)cc56)CCCCCCN(Cc5ccc(cc5)CCNC(=O)[C@]5(C)CCCN5C2=O)C(=O)CCC(=O)N[C@@H](CNC(=O)CCOCCOCC[N+](C)(C)CCNC(=O)COCCOCCNC(=O)COCCOCCNC(=O)CC[C@@H](NC(=O)CC[C@@H](NC(=O)CCCCCCCCCCCCCCCCC(=O)O)C(=O)O)C(=O)O)C(=O)N[C@H](C)C(=O)N[C@@H](Cc2cccc(c2)CNC(=O)CO4)C(=O)N3)cc1 [Ex-59] |  |  |
| < 1.26 nM | 0.008 nM | 0.062 nM | COc1ccc(C[C@@H]2NC(=O)[C@H]([C@@H](C)O)NC(=O)[C@@H]3[C@@H]4CCN3C(=O)[C@@H]3Cc5cn(c6ccc(F)cc56)CCCCCCN(Cc5ccc(cc5)CCNC(=O)[C@]5(C)CCCN5C2=O)C(=O)CCC(=O)N[C@@H](CNC(=O)COCCOCC[N+](C)(C)CCOCCNC(=O)COCCOCCNC(=O)COCCOCCNC(=O)CC[C@H](NC(=O)CC[C@H](NC(=O)CCCCCCCCCCCCCCC(=O)O)C(=O)O)C(=O)O)C(=O)N[C@H](C)C(=O)N[C@@H](Cc2cccc(c2)CNC(=O)CO4)C(=O)N3)cc1 [Ex-60] |  |  |
